What all share (assay): MTT cell viability assay, combinations (Chou-Talalay method)
Common to all, as to format: cell-based
A general note: Formazan colour is commonly taken as a measure of viable cells.

One assay has as its system HCC78 cells. To be noted: Homo sapiens. The procedure: (§1) The combinations comprising the compound of formula (1) were tested using an MTT proliferation assay in a panel of tumor cell lines of different origins. All culture materials were obtained from the sources described in Example 2. In the Chou-Talalay method, which is the standard, universally known methodology to determine drug interactions, the two drugs under study are maintained at a fixed ratio of IC50 single agent (drug 1):IC50 single agent (drug 2) while the concentration of total amount of drugs in the combination is varied and the 20% (IC20), 50% (IC50) and 80% (IC80) of growth inhibition of the combination is determined.
(§2) In the activity assays on cell lines the following terms are used: • IC50: Drug concentration at which 50% growth inhibition is achieved. • TKI IC50: The IC50 of the tyrosine kinase inhibitor as single agent. • Compound (1) IC50: The IC50 of compound (1) as single agent. • CI@IC20: The combination index of the combination consisting of drug 1 and drug 2 at a weight ratio equal to IC50 of drug 1:IC50 of drug 2 wherein said combination is used at a total amount that achieves 20% of growth inhibition. • CI@IC50: The combination index of the combination consisting of drug 1 and drug 2 at a weight ratio equal to IC50 of drug 1:IC50 of drug 2, wherein said combination is used at a total amount that achieves 50% of growth inhibition. • CI@IC80: The combination index of the combination consisting of drug 1 and drug 2 at a weight ratio equal to IC50 of drug 1:IC50 of drug 2, wherein said combination is used at a total amount that achieves 80% of growth inhibition. • Combination TKI IC50: The combination index at a tyrosine kinase inhibitor concentration that corresponds to the IC50 (single agent). • The combination index (CI) concept was introduced by Chou T.C. and Talalay P.(Chou TC, Talalay P. Adv Enzyme Regul 1984;22:27-55). The derived combination index equation for two drugs is (D = dosage or concentration): CI = ((D)1)/((Dx)1) + ((D)2)/((Dx)2) [formula] where (Dx)1 is the concentration of drug 1 "alone" that inhibits growth at a x% (i.e. (D50)1 is the concentration of drug 1 "alone" that inhibits growth at a 50%), (Dx)2 is the concentration of drug 2 "alone" that inhibits growth at a x%, (D)1 and (D)2 refer to the concentration of drug 1 and drug 2, respectively, in the combination, wherein the combination inhibits growth at the same x%. The CI Value quantitatively defines synergism (CI<1) (in particular, CI values of CI<0.7 indicates strong synergism, 0.7<CI<0.85 indicates moderate synergism, 0.85<CI<1 indicates slight synergism), additive effect (CI=1) and antagonism (CI>1). Based on the above equation, a plot of CI values at different effect levels (fa's) can be determined. Entering a series of "dose" ((D1), (D2), ((Dx)1 and (Dx)2) and % of growth inhibition (%x or effect (fa))" into an excel sheet for each drug alone and their combinations, the CI values at different x% (or fa levels) are obtained using the above equation. This plot is also called the Fa-CI plot or the Chou-Talalay plot.
(§3) Cell viability in response to combination treatment was assessed by the Thiazolyl Blue Tetrazolium Bromide (MTT) (Sigma, St Louis, MO) assay. Cells from each cell line were seeded at 2000 to 10000 per well in 96-well plates. […] Twenty-four hours after seeding, cells were exposed to compound (1), commercial drug or combinations thereof for 72 h. In the Chou-Talalay method, which is the standard, universally known methodology to determine drug interactions, the two drugs under study are maintained at a fixed ratio IC50 single agent (drug 1):IC50 single agent (drug 2).
(§4) After treatment, cells were incubated with medium containing MTT (0.75 mg/mL in medium) for 1-2 h at 37°C. Culture medium with MTT was removed and formazan crystals reabsorbed in 100 µL DMSO (Sigma, St. Louis, MO). Cell viability was determined by measuring the absorbance at 492 nm, using a microplate reader (BioWhittaker, Walkersville, MD).

Another assay concerns H2228 Cells. To be noted: Homo sapiens, NCI-H2228. How it is done:
as §1, §2, §3, §4

A further assay deals with H3122 Cells. As to conditions: Homo sapiens. How it is done:
as §1, §2, §3, §4

Data on one compound can be found in patent EP3120851A1, “4-AMINO-6-(2,6-DICHLOROPHENYL)-8-METHYL-2-(PHENYLAMINO)-PYRIDO[2,3-D]PYRIMIDIN-7(8H)-ONE FOR TREATMENT OF SOLID CANCERS” (Pangaea Biotech S.L., priority 2015, dated 2017).

Read-outs that look alike come from different tables or passages of the source.

In general, IC50 refers to the concentration needed to halve the response being measured.

With `Cn1c(=O)c(-c2c(Cl)cccc2Cl)cc2c(N)nc(Nc3ccccc3)nc21` [Compound (1), 4-amino-6-(2,6-dichlorophenyl)-8-methyl-2-(phenylamino)-pyrido[2,3-d]pyrimidin-7(8H)-one], the IC50 with HCC78 cells (HCC78, 72 h, HCC78 cells, compound (1) as single agent, 72 h, read-out: Compound (1) IC50) is 800 nM; in the assay with HCC78 cells (HCC78, HCC78 cells, compound (1) in combination with Crizotinib, read-out: Combination Compound (1) IC50) it was 430 nM; with HCC78 cells (HCC78, HCC78 cells, compound (1) in combination with Foretinib, read-out: Combination Compound (1) IC50) it was 210 nM; in the assay on H2228 Cells (H2228 cells, compound (1) as single agent, 72 h, read-out: Compound (1) IC50), 809 nM; in the assay on H2228 Cells (read-out: Combination Compound (1) IC50), 410 nM; in the assay with H3122 Cells (NCI-H3122, 72 h, H3122 cells, compound (1) as single agent, 72 h, read-out: Compound (1) IC50) it was 1300 nM. In addition, the half-maximal inhibitory concentration (IC50) in the assay on H3122 Cells (NCI-H3122, H3122 cells, compound (1) in combination with Alectinib, read-out: Combination Compound (1) IC50) was determined as 240 nM; in the assay with H3122 Cells (NCI-H3122, H3122 cells, compound (1) in combination with Crizotinib, read-out: Combination Compound (1) IC50), 500 nM.
